From patent US20170234881A1, “METHODS OF DIAGNOSING AND TREATING CANCER” (INSERM ( INSTITUT NATIONAL DE LA SANTÉ ET DE LA RECHERCHE …, priority 2014, published 2017)

Columns and labels:
[1] = tested on: MCF7 tumors; experiment: Growth of MCF7 tumors implanted s.c. into mice; type: in vivo
Description: FIG. 2. OCDO is a tumor promoter in vitro and in vivo and its inhibition contributes to the anti-tumor effects of Tam and DDA. (A, B) Histograms representing the effect of OCDO or 17β-estrogen (E2) on MCF7 (A) and TS/A (B) cell proliferation after 24 h treatment using a colorimetric immunoassay measuring BrDU incorporation in DNA (C, D) Histogram representing the effect of OCDO on MCF7 (C) and TS/A (D) cell invasion. Data are the mean of three separate experiments (±s.e.m), *P<0.05, **P<0.01, ***P<0.001 (Student's t-test). (E, F) Mice were implanted s.c. with MCF7 (E) or TS/A (F) cells and animals (8 per group) were treated s.c. every day starting on the day of implantation with either the solvent vehicle or OCDO (16 μg/kg for MCF7 or 50 μg/kg for TS/A). Animals were monitored for tumour growth twice a week. […] (G) Mean (±s.e.m) of Ki67 positive cell number determined from IHC staining of MCF7 tumor sections from (E), n=8, *P<0.05 (Student's t-test) using HistoQuant, Pannoramic Viewer (3DHistech). […]
Exponentially growing MCF7, ShMCF7, E0771, MDA-MB231, MDA-MB468 and TS/A cells were collected, washed twice in PBS and resuspended in PBS. […] Animals were examined daily, and body weights were measured twice per week. In all the experiments, the tumor volume was determined by direct measurement with a caliper and was calculated using the formula (width^2×length)/2. […]

[2] = tested on: TS/A cells; experiment: Cell proliferation assay (BrDU incorporation), TS/A; type: cell-based, mouse; conditions: TS/A cells treated 24 h, concentration-dependent, level reached
Description: (§1) FIG. 2. OCDO is a tumor promoter in vitro and in vivo and its inhibition contributes to the anti-tumor effects of Tam and DDA. (A, B) Histograms representing the effect of OCDO or 17β-estrogen (E2) on MCF7 (A) and TS/A (B) cell proliferation after 24 h treatment using a colorimetric immunoassay measuring BrDU incorporation in DNA (C, D) Histogram representing the effect of OCDO on MCF7 (C) and TS/A (D) cell invasion. Data are the mean of three separate experiments (±[…]) Mice were implanted s.c. with MCF7 (E) or TS/A (F) cells and animals (8 per group) were treated s.c. every day starting on the day of implantation with either the solvent vehicle or OCDO (16 μg/kg for MCF7 or 50 μg/kg for TS/A). Animals were monitored for tumour growth twice a week. The data are representative of three independent experiments. The mean tumor volume±s.e.m is shown, *P<0.05, **P<0.01, ***P<0.001 (analysis of variance (ANOVA), Dunnett's post test). […] (I, J, K). Murine […], or human MDA-MB231 (J) or MDA-MB468 (K) cells implanted s.c. into mice (8 per group) and animals were treated s.c. with either the solvent vehicle or OCDO (16 μg/kg for MDA-MB-231 and MDA-MB-468 or 50 μg/kg for E0771). […] At the end of this time, cells were incubated with BrDU for an additional 8 h and then evaluated for proliferation using the ELISA kit, Roche Diagnostic, as indicated by the manufacturer.

[3] = tested on: MCF7 cells; experiment: Cell proliferation assay (BrDU incorporation), MCF7; type: cell-based, human; conditions: MCF7 cells treated 24 h, concentration-dependent, level reached
Description: as §1

## CC(C)CCC[C@@H](C)[C@H]1CC[C@H]2[C@@H]3CC(=O)[C@@]4(O)C[C@@H](O)CC[C@]4(C)[C@H]3CC[C@]12C [OCDO, 6-oxo-cholestan-3β,5α-diol]
[1]; MCF7 tumors in immunodeficient mice, OCDO 16 μg/kg s.c. every day
  tumor growth compared with the control group: significantly increased
[1]; MCF7 tumors, IHC
  proliferative marker Ki67 in tumors compared with control-treated tumors: increased
[2]
  growth rate (cell proliferation) relative to the control: 1.7 fold
[3]
  growth rate (cell proliferation) relative to the control: 1.3 fold
